In the experiment the target is T1, cereblon (Homo sapiens, UniProt Q96SW2).
T1 construct: gene CRBN; cereblon/DDB1-CUL4A-Rbx1 complex; with DDB1-CUL4A-Rbx1
Nature of the experiment: AlphaScreen bead-based cereblon binding assay (BPS Bioscience #[…]) with BRD3. A general note: Bead proximity is the source of the signal in Alpha formats.

T1 sequence (Q96SW2 whole entry): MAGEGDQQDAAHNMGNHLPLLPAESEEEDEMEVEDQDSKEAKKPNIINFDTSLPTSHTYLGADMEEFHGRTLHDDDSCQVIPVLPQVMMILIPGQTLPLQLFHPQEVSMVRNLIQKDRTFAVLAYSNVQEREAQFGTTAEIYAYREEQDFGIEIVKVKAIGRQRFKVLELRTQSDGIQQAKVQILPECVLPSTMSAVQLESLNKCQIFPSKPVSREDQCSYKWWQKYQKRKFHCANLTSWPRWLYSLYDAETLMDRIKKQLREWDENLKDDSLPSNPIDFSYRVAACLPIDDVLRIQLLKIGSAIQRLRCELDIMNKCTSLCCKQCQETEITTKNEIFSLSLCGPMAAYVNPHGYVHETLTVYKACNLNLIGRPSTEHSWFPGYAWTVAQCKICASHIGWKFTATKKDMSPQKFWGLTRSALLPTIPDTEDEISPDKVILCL
T1 sequence (Q16531 2-1140 partner): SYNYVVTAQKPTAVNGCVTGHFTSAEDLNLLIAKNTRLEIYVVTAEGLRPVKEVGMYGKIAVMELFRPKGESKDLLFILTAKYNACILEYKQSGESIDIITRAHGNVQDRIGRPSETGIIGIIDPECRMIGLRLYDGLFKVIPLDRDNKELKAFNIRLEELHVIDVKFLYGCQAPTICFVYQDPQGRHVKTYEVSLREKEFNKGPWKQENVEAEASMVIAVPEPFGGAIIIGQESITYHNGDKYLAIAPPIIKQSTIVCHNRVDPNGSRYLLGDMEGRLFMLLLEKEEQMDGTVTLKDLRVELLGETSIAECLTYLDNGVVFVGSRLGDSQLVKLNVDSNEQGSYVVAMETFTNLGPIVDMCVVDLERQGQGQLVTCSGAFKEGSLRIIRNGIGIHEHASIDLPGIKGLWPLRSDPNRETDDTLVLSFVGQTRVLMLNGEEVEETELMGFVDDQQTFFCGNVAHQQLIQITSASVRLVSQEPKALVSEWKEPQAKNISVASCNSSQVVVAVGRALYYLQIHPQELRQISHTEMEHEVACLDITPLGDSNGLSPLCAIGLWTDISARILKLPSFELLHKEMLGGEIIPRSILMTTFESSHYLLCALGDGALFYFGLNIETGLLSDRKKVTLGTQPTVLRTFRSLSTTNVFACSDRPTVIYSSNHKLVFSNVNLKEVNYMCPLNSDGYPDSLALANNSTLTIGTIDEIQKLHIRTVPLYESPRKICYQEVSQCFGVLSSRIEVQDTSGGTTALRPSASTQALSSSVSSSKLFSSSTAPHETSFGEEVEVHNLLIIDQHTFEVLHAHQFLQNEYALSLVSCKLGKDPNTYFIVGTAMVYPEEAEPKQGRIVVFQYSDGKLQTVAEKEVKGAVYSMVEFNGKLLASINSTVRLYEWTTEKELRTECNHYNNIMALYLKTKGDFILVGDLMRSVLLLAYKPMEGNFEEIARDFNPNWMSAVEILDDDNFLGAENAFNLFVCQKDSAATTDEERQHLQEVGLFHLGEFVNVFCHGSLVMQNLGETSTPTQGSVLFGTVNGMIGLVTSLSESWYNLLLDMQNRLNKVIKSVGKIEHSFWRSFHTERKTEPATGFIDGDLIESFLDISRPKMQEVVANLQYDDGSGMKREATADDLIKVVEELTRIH
T1 sequence (Q13619 whole entry partner): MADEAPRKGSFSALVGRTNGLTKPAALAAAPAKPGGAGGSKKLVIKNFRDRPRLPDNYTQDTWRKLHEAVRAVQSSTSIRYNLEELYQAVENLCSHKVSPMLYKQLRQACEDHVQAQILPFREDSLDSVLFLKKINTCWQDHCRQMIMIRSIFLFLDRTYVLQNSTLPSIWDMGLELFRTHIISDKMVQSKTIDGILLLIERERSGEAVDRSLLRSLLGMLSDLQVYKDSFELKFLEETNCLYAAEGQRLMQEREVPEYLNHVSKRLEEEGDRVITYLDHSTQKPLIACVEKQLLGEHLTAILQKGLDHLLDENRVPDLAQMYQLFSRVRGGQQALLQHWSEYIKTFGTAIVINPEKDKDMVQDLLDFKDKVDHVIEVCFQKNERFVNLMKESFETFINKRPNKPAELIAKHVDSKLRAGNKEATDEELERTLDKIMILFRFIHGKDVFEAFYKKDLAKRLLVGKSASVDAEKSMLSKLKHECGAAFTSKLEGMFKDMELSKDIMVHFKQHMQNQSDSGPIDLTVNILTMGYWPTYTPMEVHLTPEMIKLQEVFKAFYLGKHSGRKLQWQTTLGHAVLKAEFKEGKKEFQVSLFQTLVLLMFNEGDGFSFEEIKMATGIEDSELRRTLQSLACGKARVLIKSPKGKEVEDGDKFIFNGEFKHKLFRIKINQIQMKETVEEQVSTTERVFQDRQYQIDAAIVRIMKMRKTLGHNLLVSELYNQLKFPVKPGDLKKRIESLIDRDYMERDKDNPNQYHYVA
T1 sequence (P62877 whole entry partner): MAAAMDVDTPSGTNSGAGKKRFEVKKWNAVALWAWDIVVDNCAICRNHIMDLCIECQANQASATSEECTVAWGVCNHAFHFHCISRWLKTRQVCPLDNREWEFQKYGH

For the compound `Nc1cccc2c1C(=O)N(C1CCC(=S)NC1=O)C2=S` (centres unmarked) [1,6′-DP, 1,6′-dithiopomalidomide], the IC50 – broadly, the point on the concentration scale where inhibition reaches its midpoint – is 1520 nM.
As for `Nc1cccc2c1C(=S)N(C1CCC(=S)NC1=O)C2=O` (centres unmarked) [3,6′-DP, 3,6′-dithiopomalidomide], the figure is 940 nM.

These data come from publication PMC9146426, “3,6′- and 1,6′-Dithiopomalidomide Mitigate Ischemic Stroke in Rats and Blunt Inflammation” (Pharmaceutics, 2022).
